These results are taken from patent US11554171B2, “Compounds and methods for the targeted degradation of bromodomain-containing proteins” (Arvinas Operations, Inc., priority 2015, dated 2023).

The subject of one test is SU-DHL-6 xenografts. Put plainly: In vivo SU-DHL-6 xenografts efficacy. To be noted: CB17 SCID mice. The protocol: In vivo SU-DHL-6 Xenografts Efficacy
The 4-5 weeks old male CB17 SCID mice were implanted subcutaneously with 5 million SU-DH-L6 GCB-DLBCL cells (in 200 ul volume of 3:1 matrigel:PBS). After 14 days, mice bearing 180-200 mm^3 tumors were randomized into three groups with ten mice in each group while ensuring identical (±5 mm^3) mean tumor volume in each group. […] Tumor volume was monitored twice per week using calipers and body weights were determined daily during the course of the study.

The subject of another test is c-myc in 22RV-1 cells. Put plainly: Human c-myc ELISA assay. The note with it: for Emax / DC50: Homo sapiens; for Emax: 22Rv1, 18 h, read-out: Degradation of BRD4: Maximum inhibition (%) c-Myc ELISA in 22RV1 cells; for DC50: 22Rv1, read-out: Degradation of BRD4: DC50 (uM) c-Myc ELISA in 22RV1 cells. The test is classed as cell-based. The gist of the method:
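c-myc levels measured by ELISA in RIPA lysates of 22RV-1 cells, calibrated with a 333-0 pg/ml standard curve. Lysates came from cells exposed for 18 h to an 8-point, 1:3 dose series starting at 300 nM or 1 μM final in 0.1% DMSO. Suppression potency given as DC50.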

A further test deals with 22RV-1 tumor xenograft. The test can be described thus: In vivo 22Rv1 xenografts efficacy. To be noted: 14 day. Further details: species or system mice. How it is done: (§1) Mice were housed in pathogen-free animal facilities at New England Life Sciences (NELS, New Haven, Conn.). All experiments were conducted under an IACUC protocol that was approved by the NELS IACUC committee. Male Nu/Nu mice and CB17 SCID mice were obtained at 4-5 weeks age from Charles River Laboratories and implanted subcutaneously with 5×10^6 22Rv1 cells or 5×10^6 VCaP cells in Matrigel (Corning Life Sciences). After 10-14 days, mice bearing >200 mm^3 tumors were randomized into indicated number of groups with ten mice in each group while ensuring identical (±5 mm^3) mean tumor volume in each group. Dosing was carried out through the indicated route and with the indicated schedule for each drug for up to three weeks, depending on the experiment. Mice were sacrificed eight hours after the final dose. Blood was collected, processed to plasma, and flash frozen for PK analysis. Tissues were harvested and flash frozen for further analysis. All PK analysis was carried out at Drumetix Laboratories (Greensboro, N.C.). 2 out of 10 animals in each study arm were randomly excluded in pharmacodynamic analysis, for greater technical ease of running a 20-well protein gel. For PSA ELISA, only samples with at least 25 uL plasma remaining after PK analysis were utilized using the Cell Signaling PathScan® Total PSA/KLK3 Sandwich ELISA Kit #14119 following the manufacturer's protocol. […]

Another test addresses T1, BRD2 (Homo sapiens, UniProt P25440).
T1 construct: endogenous in cells; host or cells: 22Rv1, VCaP, LnCaP95
Put plainly: Immunoblotting, BRD2 degradation. The test is classed as cell-based. To be noted: 22RV-1, VCaP, and LnCaP95 cells (FIG. 1). The source says:
(§2) 22Rv1 and VCaP cell lines were purchased from ATCC. LnCap95 cells were a generous gift from Dr. Alan Meeker at The Johns Hopkins University School of Medicine. BRD2 (#5848), BRD4 (#13440), PARP (#9532), c-Myc (#5605) antibodies were purchased from cell signaling. BRD3 (sc-81202) antibody was purchased from Santa Cruz Biotech. Antibodies used for immunohistochemistry were c-MYC (abcam #ab32072) and BRD4 (Bethyl Laboratories #a301-985a50). Actin and Tubulin antibodies were purchased from Sigma.
(§3) Cells were lysed in RIPA buffer (Thermo Fisher Cat #89900) supplemented with protease inhibitors (Pierce™ Protease Inhibitor Tablets, EDTA-free Cat #88266). Lysates were centrifuged at 16,000×g and supernatants were used for SDS-PAGE. Western blotting was carried out following standard protocols.

For a further test, the target named is T2, BRD3 (Homo sapiens, UniProt Q15059).
T2 construct: endogenous in cells; host or cells: 22Rv1, VCaP, LnCaP95
T2 sequence (Q15059 whole entry): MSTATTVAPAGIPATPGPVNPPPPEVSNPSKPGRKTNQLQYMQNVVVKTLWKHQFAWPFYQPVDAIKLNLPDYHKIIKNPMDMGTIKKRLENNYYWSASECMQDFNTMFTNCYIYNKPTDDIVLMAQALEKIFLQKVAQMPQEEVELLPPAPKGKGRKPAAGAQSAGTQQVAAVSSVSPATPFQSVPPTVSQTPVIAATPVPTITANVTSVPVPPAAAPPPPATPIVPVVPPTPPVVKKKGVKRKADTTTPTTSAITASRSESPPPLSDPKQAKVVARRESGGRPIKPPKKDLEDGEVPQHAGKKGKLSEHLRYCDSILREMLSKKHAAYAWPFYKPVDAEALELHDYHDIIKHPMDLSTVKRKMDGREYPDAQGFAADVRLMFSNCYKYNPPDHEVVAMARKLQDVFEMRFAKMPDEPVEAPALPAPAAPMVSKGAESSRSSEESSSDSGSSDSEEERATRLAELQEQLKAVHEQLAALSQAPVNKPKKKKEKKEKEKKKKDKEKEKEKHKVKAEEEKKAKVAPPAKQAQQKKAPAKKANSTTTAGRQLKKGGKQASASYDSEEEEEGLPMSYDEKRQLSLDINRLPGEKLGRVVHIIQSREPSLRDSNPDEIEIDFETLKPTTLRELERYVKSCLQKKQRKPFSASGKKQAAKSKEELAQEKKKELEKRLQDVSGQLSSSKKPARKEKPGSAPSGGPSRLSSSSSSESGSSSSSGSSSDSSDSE
The test can be described thus: Immunoblotting, BRD3 degradation. The note with it: 22RV-1, VCaP, and LnCaP95 cells (FIG. 1). The test is classed as cell-based.
Text: as §2, §3
(Immunoblotting shows a protein as a band on a membrane.)

In test [1] the test system is 22RV-1 cells. Put plainly: Cell proliferation assay (CellTiter-Glo). It counts as cell-based. The note with it: FIG. 4. The protocol: 22RV-1 cells are seeded at 5,000 cells/well at a volume of 75 μL/well in RPMI+10% FBS media in 96-well plates and grown overnight at 37 C. Cells are dosed with compounds at 4× concentration diluted in 0.4% DMSO; compounds are serially diluted 1:3 for 10-point dose curve. 25 ul of compounds is added to cells for a final concentration starting at 300 nM-0.3 nM in 0.1% DMSO and incubated for 72 hrs. In a separate plate, 100 ul of 5,000 cells/well are plated in 8 wells, 100 ul of CellTiter-Glo (CellTiter-Glo® Luminescent Cell Viability Assay, Promega #G7573) is added and incubated for 30 minutes, then read on luminometer to assess initial signal for cell growth. After 72 hrs, 100 ul of CellTiter-Glo is added and incubated for 30 minutes, then read on luminometer. Data is analyzed and plotted using GraphPad Prism software.
Background: In ATP-based viability assays light output follows the ATP content of the culture.

Test [2] has as its system 22RV-1 cells. Put plainly: Apoptosis assay (Caspase-Glo 3/7). The test is classed as cell-based. To be noted: FIG. 5. The protocol: 22RV-1 cells are seeded at 5,000 cells/well at a volume of 75 μL/well in RPMI+10% FBS media in 96-well plates and grown overnight at 37 C. Cells are dosed with compounds at 4× concentration diluted in 0.4% DMSO; compounds are serially diluted 1:3 for 8-point dose curve. 25 ul of compounds is added to cells for a final concentration starting at 300 nM-0.3 nM in 0.1% DMSO and incubated for 48 hrs. After 48 hrs, 100 ul of Caspase-Glo® 3/7 (Promega Caspase-Glo 3/7 Assay #G8093 is added and incubated for 30 minutes, then read on luminometer. Data is analyzed and plotted using GraphPad Prism software.

In test [3] the target is T3, BRD4 (Homo sapiens, UniProt O60885). The test can be described thus: BRD4 degradation in 22RV-1 tumor xenograft study. It counts as in vivo. Further details: from tissue; host or cells: 22Rv1 tumour xenograft harvested from mice. To be noted: 14-day 22RV-1 tumor xenograft study; dosed subcutaneously to mice at 10 mg/kg (qd) for 2 weeks (FIG. 6). The protocol: As a comparison, OTX-015 was also included (50 mg/kg, p.o., qd). Example 77 was dosed subcutaneously to mice at 10 mg/kg (qd) for 2 weeks.
as §1, with “gel.” for “gel. For PSA ELISA, only samples with at least 25 uL plasma remaining after PK analysis were utilized using the Cell Signaling PathScan® Total PSA/KLK3 Sandwich ELISA Kit #14119 following the manufacturer's protocol.”

Test [4] concerns the target T3, BRD4. Put plainly: Immunoblotting, BRD4 degradation. The test is classed as cell-based. The arrangement: compounds which function to recruit endogenous proteins, e.g., BRd4, to E3 Ubiquitin Ligase for ubiquitination and degradation; endogenous in cells; host or cells: 22Rv1, VCaP, LnCaP95.
Text: as §2, §3

T1 sequence (P25440 whole entry): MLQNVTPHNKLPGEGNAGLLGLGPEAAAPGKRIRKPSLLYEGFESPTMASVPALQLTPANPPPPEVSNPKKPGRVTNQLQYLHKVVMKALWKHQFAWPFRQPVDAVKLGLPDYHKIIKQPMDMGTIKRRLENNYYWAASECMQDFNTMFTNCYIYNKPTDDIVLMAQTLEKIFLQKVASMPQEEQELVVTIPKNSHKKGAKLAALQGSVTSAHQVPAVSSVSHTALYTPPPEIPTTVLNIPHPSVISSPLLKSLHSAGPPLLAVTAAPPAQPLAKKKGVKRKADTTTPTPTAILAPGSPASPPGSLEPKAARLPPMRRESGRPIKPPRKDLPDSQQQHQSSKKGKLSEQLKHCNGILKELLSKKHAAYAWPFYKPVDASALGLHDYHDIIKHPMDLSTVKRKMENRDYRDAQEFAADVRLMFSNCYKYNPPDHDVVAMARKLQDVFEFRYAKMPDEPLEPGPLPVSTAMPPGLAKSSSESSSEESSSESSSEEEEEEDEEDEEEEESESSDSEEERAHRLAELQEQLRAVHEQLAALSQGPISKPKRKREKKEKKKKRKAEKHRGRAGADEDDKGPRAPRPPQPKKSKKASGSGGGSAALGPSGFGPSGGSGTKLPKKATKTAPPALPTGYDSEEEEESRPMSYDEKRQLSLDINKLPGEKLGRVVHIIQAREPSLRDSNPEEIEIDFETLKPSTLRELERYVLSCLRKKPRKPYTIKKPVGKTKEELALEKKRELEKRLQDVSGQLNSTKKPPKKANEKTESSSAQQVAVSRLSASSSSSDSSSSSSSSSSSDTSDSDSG

For `Cc1sc2c(c1C)C(c1ccc(Cl)cc1)=N[C@@H](CC(=O)Nc1ccc(O)cc1)c1nnc(C)n1-2` [OTX015, reference compound], the “in vivo growth of SU-DHL-6 xenografts” value in the test on SU-DHL-6 xenografts (daily po administration of 25MPK (FIG. 10)) is given as “no effect”.

For orientation: DC50 means the concentration giving 50% degradation. On to `Cc1ncsc1-c1ccc([C@H](C)NC(=O)[C@@H]2C[C@@H](O)CN2C(=O)[C@@H](NC(=O)c2cc3cc(O[C@H]4C[C@@H](NC(=O)C[C@@H]5N=C(c6ccc(Cl)cc6)c6c(sc(C)c6C)-n6c(C)nnc65)C4)ccc3o2)C(C)(C)C)cc1` [Example 195, (2S,4R)-1-[(2S)-3,3-dimethyl-2-({5-[(1,3cis)-3-{2-[(9S)-7-(4-chlorophenyl)-4,5,13-trimethyl-3-thia-1,8,11,12-tetraazatricyclo[8.3.0.0^2,^6]trideca-2(6),4,7,10,12-pentaen-9-yl]acetamido}cyclobutoxy]-1-benzofuran-2-yl}formamido)butanoyl]-4-hydroxy-N-[(1S)-1-[4-(4-methyl-1,3-thiazol-5-yl)phenyl]ethyl]pyrrolidine-2-carboxamide], for which, in the test with c-myc in 22RV-1 cells, the Emax is 100% and the DC50 was below 0.01 µM. Besides, the “in vivo growth of SU-DHL-6 xenografts” value with SU-DHL-6 xenografts (6MPK Q3D iv dosing, n=10 (FIG. 10)) is given as “tumor regression”.

With `Cc1sc2c(c1C)C(c1ccc(Cl)cc1)=N[C@@H](CC(=O)Nc1ccc(O)cc1)c1nnc(C)n1-2` [OTX-015, reference compound], in the test with 22RV-1 tumor xenograft (OTX-015 as comparison (FIG. 7)), the “tumor response in 22RV-1 mice tumor xenograft model, comparator” value was “tumor growth inhibition”.

As for `Cc1ncsc1-c1ccc([C@H](C)NC(=O)[C@@H]2C[C@@H](O)CN2C(=O)[C@@H](NC(=O)COCCCOCCNC(=O)C[C@@H]2N=C(c3ccc(Cl)cc3)c3c(sc(C)c3C)-n3c(C)nnc32)C(C)(C)C)cc1` [Example 77, (2S, 4R)-1-[(2S)-2-{2-[3-(2-{2-[(9S)-7-(4-chlorophenyl)-4,5,13-trimethyl-3-thia-1,8,11,12-tetraazatricyclo[8.3.0.0^2,^6]trideca-2(6),4,7,10,12-pentaen-9-yl]acetamido}ethoxy)propoxy]acetamido}-3,3-dimethylbutanoyl]-4-hydroxy-N-[(1S)-1-[4-(4-methyl-1,3-thiazol-5-yl)phenyl]ethyl]pyrrolidine-2-carboxamide], the “suppression of cellular c-MYC levels measured by ELISA” value in the test on c-myc in 22RV-1 cells (FIG. 3) was “suppression”. Moreover, in the test with c-myc in 22RV-1 cells, the Emax was 100% and the DC50 is below 0.01 µM. At BRD2, the “degradation of BRD2” value is recorded as “degradation”. Besides, at BRD3, the “degradation of BRD3” value is given as “degradation”. The “proliferation inhibition of prostate cancer cell growth” value with 22RV-1 cells [1] is “proliferation inhibition”. Besides, the “caspase activation in prostate cancer cell lines” value with 22RV-1 cells [2] is on record as “caspase activation”. The “tumor response in 22RV-1 mice tumor xenograft model” value in the test on 22RV-1 tumor xenograft (subcutaneous dosing (FIG. 7)) was “tumor regression”. The “degradation of BRD4 in tumor xenograft” value at BRD4 [3] was “degradation of BRD4”. The “degradation of BRD4” value on BRD4 [4] (22RV-1, VCaP, and LnCaP95 cells (FIG. 1)) was “degradation”. Moreover, on BRD4 [4] (FIG. 2), the “BRD4 degradation after pretreatment with an excess of VHL ligand ARV-056” value is “blocked” and the “BRD4 degradation in presence of proteasome inhibitor carfilzomib” value is on record as “blocked”.

With `Cc1ncsc1-c1ccc(CNC(=O)[C@@H]2C[C@@H](O)CN2C(=O)[C@@H](NC(=O)CCN2CCC(OCCNC(=O)C[C@@H]3N=C(c4ccc(Cl)cc4)c4c(sc(C)c4C)-n4c(C)nnc43)CC2)C(C)(C)C)cc1` [Example 123], in the test with c-myc in 22RV-1 cells, the Emax stood at 19.7% and the half-maximal degradation concentration (DC50) was above 1 µM.

As to `Cc1ncsc1-c1ccc(CNC(=O)[C@@H]2C[C@@H](O)CN2C(=O)[C@@H](NC(=O)Cc2ccc(OCCNC(=O)C[C@@H]3N=C(c4ccc(Cl)cc4)c4c(sc(C)c4C)-n4c(C)nnc43)cn2)C(C)(C)C)cc1` [Example 92], in the test with c-myc in 22RV-1 cells, the Emax was found to be 91.1% and the DC50 lay within 0.1 to 1 µM.

For the compound `Cc1ncsc1-c1ccc([C@H](C)NC(=O)[C@@H]2C[C@@H](O)CN2C(=O)[C@@H](C(C)C)n2cc(-c3ccc(N4CC(NC(=O)C[C@@H]5N=C(c6ccc(Cl)cc6)c6c(sc(C)c6C)-n6c(C)nnc65)C4)nc3)cn2)cc1` [Example 255], in the test on c-myc in 22RV-1 cells, the Emax amounted to 35.5% and the DC50 was above 1 µM.

Regarding `Cc1ncsc1-c1ccc([C@H](C)NC(=O)[C@@H]2C[C@@H](O)CN2C(=O)[C@@H](NC(=O)[C@@H]2CC[C@H](COCCCNC(=O)C[C@@H]3N=C(c4ccc(Cl)cc4)c4c(sc(C)c4C)-n4c(C)nnc43)O2)C(C)(C)C)cc1` [Example 186], in the test with c-myc in 22RV-1 cells, the Emax turned out to be 94.5% and the DC50 fell in the range of 0.01 to 0.1 µM.

On to `Cc1ncsc1-c1ccc(CNC(=O)[C@@H]2C[C@@H](O)CN2C(=O)[C@H](C(C)C)N2Cc3ccccc3C2=O)c(OCCOCCOCCOCCOCCNC(=O)C[C@@H]2N=C(c3ccc(Cl)cc3)c3c(sc(C)c3C)-n3c(C)nnc32)c1` [Example 2], for which, in the test with c-myc in 22RV-1 cells, the Emax is 41% and the DC50 is above 1 µM.

`Cc1ncsc1-c1ccc(CNC(=O)[C@@H]2C[C@@H](O)CN2C(=O)[C@@H](NC(=O)COCCCSCCNC(=O)C[C@@H]2N=C(c3ccc(Cl)cc3)c3c(sc(C)c3C)-n3c(C)nnc32)C(C)(C)C)cc1` [Example 100]: in the test on c-myc in 22RV-1 cells, the Emax worked out at 99% and the DC50 was 0.01 to 0.1 µM.

For `Cc1ncsc1-c1ccc(CNC(=O)[C@@H]2C[C@@H](O)CN2C(=O)[C@@H](NC(=O)COCCCCOc2ccc3c(c2)c2c(C(N)=O)cc(-c4c(C)noc4C)cc2n3Cc2ccccc2)C(C)(C)C)cc1` [Example 175], in the test on c-myc in 22RV-1 cells, the Emax came to 92% and the DC50 was 0.01 to 0.1 µM.

On to `Cc1ncsc1-c1ccc([C@H](C)NC(=O)[C@@H]2C[C@@H](O)CN2C(=O)[C@@H](NC(=O)CCc2cc(OC(C)CNC(=O)C[C@@H]3N=C(c4ccc(Cl)cc4)c4c(sc(C)c4C)-n4c(C)nnc43)ccc2F)C(C)(C)C)cc1` (stereo partly drawn) [Example 151], for which, in the test with c-myc in 22RV-1 cells, the Emax worked out at 96% and the DC50 is below 0.01 µM.
